The target of this assay is recombinant IL4I1 (Homo sapiens (Human), UniProt Q96RQ9). The experiment in a line: IL4I1 Enzymatic Assay (Amplex Red/HRP coupled fluorescence detection of H2O2). In kind it is biochemical. The settings on record: 240 min; recombinant IL4I1, four-hour pre-incubation with compound. The procedure, abridged: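 Ten-point, 1:3 compound titrations were fitted by four-parameter sigmoidal regression to give EC50. Resorufin fluorescence (544/590 nm) from Amplex Red/HRP-coupled H2O2 detection was read 120 min after adding 1 mM each aromatic amino acid to 1 nM IL4I1, following a 4 h compound pre-incubation in pH 7.0 Hepes buffer.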
Chain of recombinant IL4I1 (Q96RQ9 22-567): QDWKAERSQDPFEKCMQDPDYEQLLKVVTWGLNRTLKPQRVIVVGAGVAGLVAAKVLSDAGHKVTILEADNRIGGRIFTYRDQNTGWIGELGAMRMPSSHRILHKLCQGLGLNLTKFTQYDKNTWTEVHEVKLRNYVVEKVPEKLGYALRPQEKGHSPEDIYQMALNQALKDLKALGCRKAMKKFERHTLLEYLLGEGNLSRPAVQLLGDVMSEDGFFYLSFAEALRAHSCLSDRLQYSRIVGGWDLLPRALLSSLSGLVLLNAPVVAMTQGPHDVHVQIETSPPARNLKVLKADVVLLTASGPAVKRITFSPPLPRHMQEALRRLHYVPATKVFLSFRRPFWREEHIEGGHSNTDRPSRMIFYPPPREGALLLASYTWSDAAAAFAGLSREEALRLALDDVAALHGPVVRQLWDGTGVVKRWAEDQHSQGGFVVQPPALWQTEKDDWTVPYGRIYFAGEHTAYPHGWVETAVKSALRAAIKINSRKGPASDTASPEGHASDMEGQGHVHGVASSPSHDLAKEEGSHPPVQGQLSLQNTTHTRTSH

Usually EC50 stands for the concentration giving half of the maximal effect. Regarding `O=c1c(=O)n(C23CC(C2)C3)ccn1Cc1cnc(-c2ccccc2F)cn1` [Example 75, 1-(bicyclo[1.1.1]pentan-1-yl)-4-((5-(2-fluorophenyl)pyrazin-2-yl)methyl)-1,4-dihydropyrazine-2,3-dione], the EC50 was found to be 7 nM.
For `O=C1C(=O)N(C23CC(C2)C3)CCN1Cc1cc(-c2cccc(F)c2)on1` [Example 76, 1-(bicyclo[1.1.1]pentan-1-yl)-4-((5-(3-fluorophenyl)isoxazol-3-yl)methyl)piperazine-2,3-dione], the EC50 was found to be 4 nM.
For the compound `O=c1c(=O)n(C23CC(C2)C3)ccn1Cc1cc(-c2ccccc2F)on1` [Example 77, 1-(bicyclo[1.1.1]pentan-1-yl)-4-((5-(2-fluorophenyl)isoxazol-3-yl)methyl)-1,4-dihydropyrazine-2,3-dione], the EC50 worked out at 3 nM.
For the compound `O=C1C(=O)N(C2CCC2)CCN1Cc1cnc(-c2ccccc2F)s1` [Example 78, 1-cyclobutyl-4-((2-(2-fluorophenyl)thiazol-5-yl)methyl)piperazine-2,3-dione], the EC50 came to 6 nM.
Under `O=C1C(=O)N(C2CCC2)CCN1Cc1cnc(-c2cccc(F)c2)s1` [Example 79, 1-cyclobutyl-4-((2-(3-fluorophenyl)thiazol-5-yl)methyl)piperazine-2,3-dione] stands 5 nM; under `[2H]c1c([2H])c([2H])c(-c2ccc(CN3CCN(C4CCC4)C(=O)C3=O)nn2)c([2H])c1[2H]` [Example 80, 1-cyclobutyl-4-((6-(phenyl-d5)pyridazin-3-yl)methyl)piperazine-2,3-dione], 15 nM.
The result for `O=C1C(=O)N(C2CCC2)CCN1Cc1ccc(-c2cc(Br)ccc2F)nn1` [Example 81, 1-((6-(5-bromo-2-fluorophenyl)pyridazin-3-yl)methyl)-4-cyclobutylpiperazine-2,3-dione] reads 60 nM.
For `CC1(n2ccn(Cc3nnc(-c4cccc(F)c4)s3)c(=O)c2=O)CCC1` [Example 82, 1-((5-(3-fluorophenyl)-1,3,4-thiadiazol-2-yl)methyl)-4-(1-methylcyclobutyl)-1,4-dihydropyrazine-2,3-dione], the 50% effective concentration (EC50) came to 10 nM.
The result for `CC1(n2ccn(Cc3nnc(-c4ccc(F)cc4)s3)c(=O)c2=O)CCC1` [Example 83, 1-((5-(4-fluorophenyl)-1,3,4-thiadiazol-2-yl)methyl)-4-(1-methylcyclobutyl)-1,4-dihydropyrazine-2,3-dione] reads 8 nM; that for `Cc1ccccc1-c1nnc(CN2CCN(C34CC(C3)C4)C(=O)C2=O)s1` [Example 84, 1-(bicyclo[1.1.1]pentan-1-yl)-4-((5-(o-tolyl)-1,3,4-thiadiazol-2-yl)methyl)piperazine-2,3-dione], 13 nM.
Under `O=c1c(=O)n(C23CC(C2)C3)ccn1Cc1ccc(-c2cccnc2)nn1` [Example 85, 1-(bicyclo[1.1.1]pentan-1-yl)-4-((6-(pyridin-3-yl)pyridazin-3-yl)methyl)-1,4-dihydropyrazine-2,3-dione] stands 29 nM.
Consider `O=c1c(=O)n(C23CC(C2)C3)ccn1Cc1ccc(-c2ccccn2)cn1` [Example 86, 1-([2,3′-bipyridin]-6′-ylmethyl)-4-(bicyclo[1.1.1]pentan-1-yl)-1,4-dihydropyrazine-2,3-dione], for which the EC50 is 27 nM.
The result for `CC1(n2ccn(Cc3ccc(-c4ccccn4)nn3)c(=O)c2=O)CC1` [Example 87, 1-(1-methylcyclopropyl)-4-((6-(pyridin-2-yl)pyridazin-3-yl)methyl)-1,4-dihydropyrazine-2,3-dione] reads 87 nM; that for `CC1(n2ccn(Cc3ccc(-c4ccccn4)cn3)c(=O)c2=O)CC1` [Example 88, 1-([2,3′-bipyridin]-6′-ylmethyl)-4-(1-methylcyclopropyl)-1,4-dihydropyrazine-2,3-dione], 69 nM.
The result for `N#CC1(n2ccn(Cc3ccc(-c4cccnc4)nn3)c(=O)c2=O)CC1` [Example 89, 1-(2,3-dioxo-4-((6-(pyridin-3-yl)pyridazin-3-yl)methyl)-3,4-dihydropyrazin-1(2H)-yl)cyclopropane-1-carbonitrile] reads 32 nM.
The result for `CC1(n2ccn(Cc3ccc(-c4cccnc4)nn3)c(=O)c2=O)CC1` [Example 90, 1-(1-methylcyclopropyl)-4-((6-(pyridin-3-yl)pyridazin-3-yl)methyl)-1,4-dihydropyrazine-2,3-dione] reads 63 nM.
Turning to `N#CC1(n2ccn(Cc3ccc(-c4ccccn4)nn3)c(=O)c2=O)CC1` [Example 91, 1-(2,3-dioxo-4-((6-(pyridin-2-yl)pyridazin-3-yl)methyl)-3,4-dihydropyrazin-1(2H)-yl)cyclopropane-1-carbonitrile], the EC50 worked out at 162 nM.
Under `N#CC1(n2ccn(Cc3ccc(-c4ccccn4)cn3)c(=O)c2=O)CC1` [Example 92, 1-(4-([2,3′-bipyridin]-6′-ylmethyl)-2,3-dioxo-3,4-dihydropyrazin-1(2H)-yl)cyclopropane-1-carbonitrile] stands 155 nM; under `O=c1c(=O)n(C23CC(C2)C3)ccn1Cc1ccc(-c2ccccn2)nn1` [Example 93, 1-(bicyclo[1.1.1]pentan-1-yl)-4-((6-(pyridin-2-yl)pyridazin-3-yl)methyl)-1,4-dihydropyrazine-2,3-dione], 31 nM.
In the case of `CC1(n2ccn(Cc3ccc(-c4cncs4)nn3)c(=O)c2=O)CC1` [Example 94, 1-(1-methylcyclopropyl)-4-((6-(thiazol-5-yl)pyridazin-3-yl)methyl)-1,4-dihydropyrazine-2,3-dione], the EC50 turned out to be 35 nM.
The result for `O=c1c(=O)n(C23CC(C2)C3)ccn1Cc1ccc(-c2cncs2)nn1` [Example 95, 1-(bicyclo[1.1.1]pentan-1-yl)-4-((6-(thiazol-5-yl)pyridazin-3-yl)methyl)-1,4-dihydropyrazine-2,3-dione] reads 16 nM; that for `O=C1C(=O)N([C@H]2C[C@H](c3ccccc3)C2)CCN1Cc1ccc(-c2ccccc2)nn1` [Example 96A, trans-1-(3-phenylcyclobutyl)-4-((6-phenylpyridazin-3-yl)methyl)piperazine-2,3-dione], 14 nM; that for `O=C1C(=O)N([C@H]2C[C@@H](c3ccccc3)C2)CCN1Cc1ccc(-c2ccccc2)nn1` [Example 96B, cis-1-(3-phenylcyclobutyl)-4-((6-phenylpyridazin-3-yl)methyl)piperazine-2,3-dione], 8 nM.
On to `O=C1C(=O)N(C2CCCC2)CCN1Cc1ccc(-c2ccccc2)nc1` [Example 97, 1-cyclopentyl-4-((6-phenylpyridin-3-yl)methyl)piperazine-2,3-dione], for which the EC50 came out at 5 nM.
On to `O=C1C(=O)N(C2CCCC2)CCN1Cc1ccc(-c2ccccc2)cn1` [Example 98, 1-cyclopentyl-4-((5-phenylpyridin-2-yl)methyl)piperazine-2,3-dione], for which the EC50 amounted to 12 nM.
On to `O=C1C(=O)N(C2CCCC2)CCN1Cc1ccc(-c2ccccc2)cc1F` [Example 100, 1-cyclopentyl-4-((3-fluoro-[1,1′-biphenyl]-4-yl)methyl)piperazine-2,3-dione], for which the EC50 turned out to be 8 nM.
Under `O=C1C(=O)N(C2CCCC2)CCN1Cc1ncc(-c2ccccc2)cc1F` [Example 101, 1-cyclopentyl-4-((3-fluoro-5-phenylpyridin-2-yl)methyl)piperazine-2,3-dione] stands 8 nM.
The result for `O=C1C(=O)N(C2CCCC2)CCN1Cc1cnc(-c2ccccc2)c(F)c1` [Example 102, 1-cyclopentyl-4-((5-fluoro-6-phenylpyridin-3-yl)methyl)piperazine-2,3-dione] reads 14 nM; that for `O=C1C(=O)N(C2CCCC2)CCN1Cc1cnc(-c2ccccc2)nn1` [Example 103, 1-cyclopentyl-4-((3-phenyl-1,2,4-triazin-6-yl)methyl)piperazine-2,3-dione], 11 nM; that for `O=C1C(=O)N(C2CCCC2)CCN1Cc1cc(-c2ccccc2)on1` [Example 104, 1-cyclopentyl-4-((5-phenylisoxazol-3-yl)methyl)piperazine-2,3-dione], 4 nM.
The result for `O=C1C(=O)N(C2CCC2)CCN1Cc1cc(-c2ccccc2)on1` [Example 105, 1-cyclobutyl-4-((5-phenylisoxazol-3-yl)methyl)piperazine-2,3-dione] reads 2 nM; that for `O=C1C(=O)N(C2CCC2)CCN1Cc1ncc(-c2ccccc2)cc1F` [Example 106, 1-cyclobutyl-4-((3-fluoro-5-phenylpyridin-2-yl)methyl)piperazine-2,3-dione], 7 nM.
`O=C1C(=O)N(C2CCC2)CCN1Cc1cnc(-c2ccccc2)nc1` [Example 107, 1-cyclobutyl-4-((2-phenylpyrimidin-5-yl)methyl)piperazine-2,3-dione]: the EC50 is 13 nM.
With `CC(c1cnc(-c2ccccc2)cn1)N1CCN(C2CCC2)C(=O)C1=O` (centres unmarked) [Example 108, 1-cyclobutyl-4-(1-(5-phenylpyrazin-2-yl)ethyl)piperazine-2,3-dione], the EC50 came out at 20 nM.
The result for `O=C1C(=O)N(C2CCC2)CCN1Cc1ccc(-n2ccnn2)nc1` [Example 109, 1-((6-(1H-1,2,3-triazol-1-yl)pyridin-3-yl)methyl)-4-cyclobutylpiperazine-2,3-dione] reads 24 nM.
In the case of `O=C1C(=O)N(C23CC(C2)C3)CCN1Cc1cnc(-c2ccccc2)nc1` [Example 110, 1-(bicyclo[1.1.1]pentan-1-yl)-4-((2-phenylpyrimidin-5-yl)methyl)piperazine-2,3-dione], the EC50 is 27 nM.
Regarding `O=c1c(=O)n(C23CC(C2)C3)ccn1Cc1cnc(-c2ccccc2)nc1` [Example 111, 1-(bicyclo[1.1.1]pentan-1-yl)-4-((2-phenylpyrimidin-5-yl)methyl)-1,4-dihydropyrazine-2,3-dione], the EC50 came out at 8 nM.
The result for `O=C1C(=O)N(C23CC(C2)C3)CCN1Cc1cnc(-c2ccccc2)cn1` [Example 112, 1-(bicyclo[1.1.1]pentan-1-yl)-4-((5-phenylpyrazin-2-yl)methyl)piperazine-2,3-dione] reads 7 nM.

The values above are taken from patent publication US20240246937A1 (MERCK SHARP & DOHME LLC, priority 2021, published 2024).
